The values that follow come from patent publication US8354246B2, “Non-MCCJ25-related lariat-peptide inhibitors of bacterial RNA polymerase” (priority 2006, dated 2013).

In data set [1] the target is T1, Thermus thermophilus σ^A RNAP holoenzyme (Thermus thermophilus, UniProt Q8RQE8).
T1 construct: made in house
The data set can be described thus: fluorescence-detected abortive initiation assay. Type of data set: biochemical. The conditions noted are these: lacUV5-12 DNA fragment, 37° C. How it is done: (§1) Following incubation of reaction mixtures for 5 min at 22° C., 1 μl 1.1 μM DNA fragment lacUV5-12 (Mukhopadhyay et al. (2001) Cell 106, 453-463) was added. Following further incubation of reaction mixtures for […] at 37° C., 0.5 μl 1 mg/ml heparin (Sigma, Inc.; omitted in experiments with T. thermophilus RNAP) and 0.5 μl of 2.75 mM (γ-AmNS)UTP (Molecular Probes, Inc.) were added, and reaction mixtures were transferred to sub-micro fluorometer cuvettes (Starna Cells, Inc.). Following further incubation of reaction mixtures for 2 min at 37° C., RNA synthesis was initiated by addition of 2 μl 11 mM ApA (Sigma, Inc.), and fluorescence emission intensity was monitored for 5 min at 37° C. [excitation wavelength=360 nm and emission wavelength=500 nm; excitation and emission slit widths=4 nm; QuantaMaster QM1 spectrofluorometer (PTI, Inc.)]. The quantity of UMP incorporated into RNA was determined from the quantity of (γ-AmNS) UTP consumed, which, in turn, was calculated as follows (Schlageck et al. 1979): (γ-AmNS)UTPconsumed=[(γ-AmNS)UTP0](Ft−F0)/(12.4×F0) where (γ-AmNS)UTP0 is the quantity of (γ-AmNS)UTP at time 0, F0 is the fluorescence emission intensity at time 0, and Ft is the fluorescence emission intensity at time t.

Data set [2] concerns the target T2, Escherichia coli σ^70 RNAP holoenzyme (Escherichia coli, UniProt P0A8T7).
T2 construct: purchased Epicentre, Inc
The data set can be described thus: fluorescence-detected abortive initiation assay. The conditions noted are these: lacUV5-12 DNA fragment, 37° C. The class given is biochemical. The method, then: as §1

The conditions of data set [3]: tested thermal and chemical denaturants; cited from earlier work.
Data set [4] deals with Thermus-Deinoccoccus bacterial RNAP. The conditions noted are these: Yuzenkova, et al. (2002); cited from earlier work.
The test system of data set [5] is mesophilic endo- and exopeptidease. The conditions noted are these: tested mesophilic endo- and exopeptidases; cited from earlier work.
Data set [6] deals with Gram-positive bacterial RNAP. The conditions noted are these: Yuzenkova, et al. (2002); cited from earlier work.

Bridge positions count the residues as written; N and C are the ends. Peptide text beside a SMILES is read from it.

T1 sequence (Q8RQE8 whole entry): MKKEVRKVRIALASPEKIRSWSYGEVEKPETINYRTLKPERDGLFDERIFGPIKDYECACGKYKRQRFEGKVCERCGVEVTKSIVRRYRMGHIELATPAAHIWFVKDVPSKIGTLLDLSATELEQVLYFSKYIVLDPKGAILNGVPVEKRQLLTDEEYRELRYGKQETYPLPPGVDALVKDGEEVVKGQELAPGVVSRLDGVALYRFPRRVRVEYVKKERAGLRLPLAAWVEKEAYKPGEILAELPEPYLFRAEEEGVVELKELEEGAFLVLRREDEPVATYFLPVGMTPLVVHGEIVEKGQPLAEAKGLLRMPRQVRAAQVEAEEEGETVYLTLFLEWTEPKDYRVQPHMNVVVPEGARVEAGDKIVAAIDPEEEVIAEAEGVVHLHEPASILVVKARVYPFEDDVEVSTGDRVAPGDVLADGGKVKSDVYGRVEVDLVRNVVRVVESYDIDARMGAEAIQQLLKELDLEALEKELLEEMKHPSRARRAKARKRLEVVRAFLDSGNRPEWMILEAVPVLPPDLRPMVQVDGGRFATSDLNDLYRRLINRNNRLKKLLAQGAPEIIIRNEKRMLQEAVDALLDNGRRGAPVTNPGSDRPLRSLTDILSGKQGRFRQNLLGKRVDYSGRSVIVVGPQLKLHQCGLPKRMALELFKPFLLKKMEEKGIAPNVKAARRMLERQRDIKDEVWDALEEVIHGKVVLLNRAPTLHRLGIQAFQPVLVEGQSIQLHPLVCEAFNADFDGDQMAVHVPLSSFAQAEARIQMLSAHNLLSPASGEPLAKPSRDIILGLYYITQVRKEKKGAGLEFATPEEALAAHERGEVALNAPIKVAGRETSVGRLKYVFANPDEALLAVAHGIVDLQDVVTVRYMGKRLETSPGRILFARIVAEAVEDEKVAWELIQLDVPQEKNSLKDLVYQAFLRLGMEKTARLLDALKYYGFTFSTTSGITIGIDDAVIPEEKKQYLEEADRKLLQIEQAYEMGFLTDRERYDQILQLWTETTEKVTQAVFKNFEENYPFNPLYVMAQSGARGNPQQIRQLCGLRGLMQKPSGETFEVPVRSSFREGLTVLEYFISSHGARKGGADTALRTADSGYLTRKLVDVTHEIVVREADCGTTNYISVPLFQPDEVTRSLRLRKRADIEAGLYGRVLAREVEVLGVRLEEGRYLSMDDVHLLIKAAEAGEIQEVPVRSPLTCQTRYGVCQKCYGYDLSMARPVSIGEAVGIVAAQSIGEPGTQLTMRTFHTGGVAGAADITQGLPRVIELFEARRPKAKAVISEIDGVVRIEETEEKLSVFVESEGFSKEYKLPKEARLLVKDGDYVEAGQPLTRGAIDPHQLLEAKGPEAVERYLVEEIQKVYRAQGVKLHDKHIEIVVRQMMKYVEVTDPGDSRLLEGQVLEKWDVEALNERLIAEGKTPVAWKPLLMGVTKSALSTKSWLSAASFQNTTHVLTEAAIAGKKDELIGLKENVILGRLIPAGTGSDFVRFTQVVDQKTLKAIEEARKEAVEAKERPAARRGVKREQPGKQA

What is called IC50 is the concentration needed to halve the response being measured. A high value points to weaker potency. For `C[C@@H](O)[C@@H]1NC(=O)CNC(=O)[C@H](Cc2c[nH]cn2)NC(=O)[C@H](Cc2c[nH]c3ccccc23)NC(=O)[C@H](CC(N)=O)NC(=O)CNC(=O)C[C@@H](C(=O)N[C@@H](Cc2c[nH]c3ccccc23)C(=O)N[C@@H](Cc2ccccc2)C(=O)N[C@@H](Cc2ccccc2)C(=O)N[C@@H](CC(N)=O)C(=O)N[C@@H](Cc2ccc(O)cc2)C(=O)N[C@@H](Cc2ccc(O)cc2)C(=O)N[C@@H](Cc2c[nH]c3ccccc23)C(=O)O)NC(=O)[C@@H]2CCCN2C(=O)[C@H](CO)NC1=O` [RES-701-3] (GNWHGTSPDWFFNYYW-OH; lactam N-9; C-terminus assumed), the concentration for half-maximal inhibition (IC50) worked out at 2 µM in data set [1] and 20 µM in data set [2].
`CC[C@H](C)[C@H](NC(=O)[C@H](Cc1ccccc1)NC(=O)[C@@H](NC(=O)[C@H](Cc1cnc[nH]1)NC(=O)CNC(=O)CNC(=O)[C@H](Cc1ccccc1)NC(=O)[C@H](CC(C)C)NC(=O)[C@@H]1CC(=O)NCC(=O)N[C@@H](Cc2ccc(O)cc2)C(=O)N2CCC[C@H]2C(=O)N[C@@H](Cc2c[nH]c3ccccc23)C(=O)N[C@@H](Cc2c[nH]c3ccccc23)C(=O)N[C@@H](CC(=O)O)C(=O)N[C@@H](Cc2ccc(O)cc2)C(=O)N[C@@H](CCCNC(=N)N)C(=O)N1)[C@@H](C)O)C(=O)N[C@@H](CO)C(=O)N1CCC[C@H]1C(=O)O` [propeptin] (GYPWWDYRDLFGGHTFISP-OH; lactam N-9): the IC50 came out at 5 µM in data set [1] and 30 µM in data set [2].
As to “Gly1-Gly2-Ala3-Gly4-His5-Pro6-Val7-Glu8-Tyr9-Phe10-Val11-Gly12-Ile13-Gly14-Thr15-Pro16-Ile17-Ser18-Phe19-Tyr20-Gly21 cyclic(8→1) peptide [MccJ25]”, the resistance to denaturation entry in data set [3] is “complete resistance to tested thermal and chemical denaturants”. Moreover, in data set [4], the “inhibition of Thermus-Deinoccoccus bacterial RNAP” value is reported as “does not inhibit”. Further, the resistance to proteolysis entry in data set [5] was “complete resistance to tested mesophilic endo- and exopeptidease”. The “inhibition of Gram-positive bacterial RNAP” value in data set [6] is “does not inhibit”.
